# Test results published in patent US6358491B1, “Somatostatin analogs” (Berlex Laboratories, Inc., priority 1999, dated 2002).
# Like-named read-outs stand apart in the source and are kept apart here. Where a SMILES comes first, the peptide text is derived from it. [ ]: non-standard residue; d: D form. ξ: configuration not given here. NMehCys = CN[C@@H](CCS)C(=O)O; Thr(3ξ) = CC(O)[C@H](N)C(=O)O
# Experiments:
# AR42J tumor xenografts = test: Biodistribution of 99mTc-labeled compounds in nude mice with AR42J tumor xenografts; format: in vivo; conditions: 99mTc-labeled compound, 90 minutes post-injection; for TUMOR: i.v.; for T:B: tumor to blood ratio; for T:M: tumor to muscle ratio
# Procedure: Rat pancreatic AR42J cells (ATCC, Rockville, Md., USA) were grown in Modified Ham's F12K medium (Cat. No. N-3520, Sigma, St. Louis, Mo., USA) containing 20% fetal bovine serum (FCS) (Cat. No. 1224, Lot No. 9702058, Sigma, St. Louis, Mo., USA) under sterile conditions in 95% humidity and 5% CO2. At a density of approximately 10×10^6 cells per T150 flask, the cells were harvested with trypsin and collected by centrifugation at 2400 rpm (800×g) for 15 minutes in a benchtop centrifuge (IEC Centra-8 tabletop centrifuge, International Equipment Company, Needham, Mass., USA). The cells were resuspended in medium containing 20% FCS for implantation.
# Six female nude mice (CrlLNU/NU-nuBR, 6-8 weeks old) were injected subcutaneously into the right flank with tumor cells (2×10^7/100 μL) in 20% matrigel (Collaborative Biomedical Products, Chicago, Ill., USA). Fourteen days after inoculation tumors were visible in all animals. Three weeks after inoculation, tumors were aseptically dissected, minced and implanted into 60 nude mice using a trochar. The tumor xenografts from the second passage were used for biodistribution studies.
# A dose of approximately 50-100 μCi ^99mTc-labeled compound/mouse was injected intravenously in a total volume of 100 μL. Mice were sacrificed 90 minutes post-injection by decapitation and the trunk blood was collected. Tumors (1 to 3 per mouse), liver, gastrointestinal tract, kidneys, and samples of muscle from both legs (quadriceps femoralis) were collected, weighed, and counted for radioactivity.
# SSTRs, NCI-H69 membranes = test: [125I]SST-14 binding to NCI-H69 cell membranes (SSTR affinity); set-up: species or system human; conditions: inhibition of [125I]SST-14 binding, two-site fit
# Procedure: [^125I-Tyr^11] somatostatin-14 ([^125I]SST-14) was obtained from Amersham. Unlabeled somatostatin-14 was purchased either from BACHEM (Torrance, Calif.) or from Sigma Chemical Co. (St. Louis, Mo.). Protease inhibitors, leupeptin, aprotinin, bacitracin, and benzamidine and other reagents were obtained from Sigma. Protease inhibitors were prepared in dimethylsulfoxide (DMSO) at a concentration 500×higher than the final assay concentration. The prepared protease solution was stored at −20° C. and diluted with the buffer solution before use.
# Membrane preparations used in these studies were prepared from two commercially available tumor cell lines, the human small cell lung cancer cell line, NCI-H69, and the rat pancreatic tumor cell line, AR42J, obtained from American Type Culture Collection (ATCC) (Manassas, Va.). NCI-H69 cells were maintained by serial passage in RPMI 1640 with 10% fetal calf serum. AR42J cells were maintained in F-12K medium containing 20% fetal calf serum. Cells in culture flasks were incubated at 37° C. with 5% CO2 in air atmosphere following the recommendations of the “Product Sheet” from ATCC.
# Cultured cells were first detached from plates with phosphate-buffered saline, pH 7.4, containing 2 mM EDTA, and centrifuged at 1,500×g for 10 min. Cells were then resuspended in 5-10 mL of the homogenization buffer (1 mM sodium bicarbonate, pH 7.4, 1 mM EDTA, 1 mM EGTA, 2.5 mM DTT, 5 μg/mL leupeptin, 5 μg/mL aprotinin, 100 μg/mL bacitracin, 100 μg/mL benzamidine) for 10 min on ice. The cells were lysed for 30 sec twice in a polytron with a setting at 5. The lysate was centrifuged at 1,000×g for 10 min at 4° C. The supernatant was centrifuged at 40,000×g for 20 min at 4° C. This step was repeated twice with the homogenization buffer in the absence of protease inhibitors. The pellet was then resuspended at 1-5 mg membrane protein/mL in 25 mM Tris, pH 7.4 without the addition of protease inhibitors and the membranes were stored at −80° C. before use. Membrane protein concentration was determined spectroscopically using the bicinchonic acid (BCA) protein assay kit (Pierce Chemical Inc. (Rockford, Ill.).
# All [^125I]SST-14 binding assays were performed in 0.5 mL binding buffer containing 50 mM HEPES, pH 7.5, 10 mM MgCl2, 0.25% BSA (w/v) containing protease inhibitors (same as above) and incubated at 37° C. for 45 minutes. After incubation, samples were kept at 4° C. and rapidly filtered under vacuum through a Whatman GF/B glass fiber filter with a 12-well harvester (Skatron Instruments Inc., Sterling, Va.). The filter was washed for 9 seconds with cold 50 mM HEPES, pH 7.5, 10 mM MgCl2, 0.25% BSA (w/v). Thirty-five […] of [^125I]SST-14 from Amersham was used in each tube. Peptides were solubilized in DMSO and serially diluted with DMSO. Five μL of peptide in DMSO was used to obtain the final concentration. DMSO (5 μL) was added to the tube without the addition of any peptide or unlabeled SST-14, so that each tube contained 1% DMSO. Non-specific binding was defined as the binding of [^125I]SST-14 which was not displaceable with an excess of unlabeled SST-14 at a concentration of 1×10^−6 M. The bound [^125I]SST-14 without or with excess unlabeled SST-14 (1×10^−6 M) was defined as total binding and nonspecific binding, respectively. The difference between total and nonspecific binding was defined as specific binding. The percent inhibition (% Inh) by peptide was expressed as
# % Inh=(total binding−total binding in the presence of peptide)/specific binding×100%
# Inclusion of protease inhibitors in homogenizing medium as well as assay buffer is essential to maintain the integrity of both [^125I]SST-14 and somatostatin analogs for the receptor binding assay and to obtain optimal specific binding. The highest specific binding was observed when MgCl2 (10 mM) was included. Membranes were finally resuspended in a sodium-free medium and receptor binding assays were performed in the absence of sodium ions. […]
# [1] = read-out: IC50 Values for Uncomplexed Compounds, NCI-H69 (first value)
# [2] = read-out: IC50 Values for Uncomplexed Compounds, NCI-H69 (second value)
SMILES,TUMOR (AR42J tumor xenografts) [%ID/g],T:B (AR42J tumor xenografts),T:M (AR42J tumor xenografts),"IC50 (SSTRs, NCI-H69 membranes; [1]) [nM]","IC50 (SSTRs, NCI-H69 membranes; [2]) [nM]"
C[C@@H](O)[C@@H]1NC(=O)[C@H](CCCCN)NC(=O)[C@@H](Cc2c[nH]c3ccccc23)NC(=O)[C@H](Cc2ccc(O)cc2)NC(=O)[C@H](CCSCC(=O)NC[C@H](N)C(=O)N[C@@H](CCCN)C(=O)N[C@@H](CS)C(=O)N[C@H](CO)[C@@H](C)O)N(C)C(=O)[C@H](Cc2ccccc2)NC1=O [cyclo-Tyr-D-Trp-Lys-Thr-Phe-(N—CH3)Hcy(CH2 CO-β-Dap-Orn-Cys-Thr(ol))],10.3,24,96,0.505,744
C[C@@H](O)[C@@H]1NC(=O)[C@H](CCCCN)NC(=O)[C@@H](Cc2c[nH]c3ccccc23)NC(=O)[C@H](Cc2ccc(O)cc2)NC(=O)[C@H](CCSCC(=O)NCCC[C@H](N)C(=O)NCC(=O)N[C@@H](CS)C(N)=O)N(C)C(=O)[C@H](Cc2ccccc2)NC1=O [cyclo-Tyr-D-Trp-Lys-Thr-Phe-(N—CH3)Hcy(CH2 CO-δ-Orn-Gly-Cys-NH2)],1.8,29,95,,
C[C@@H](O)[C@@H]1NC(=O)[C@H](CCCCN)NC(=O)[C@@H](Cc2c[nH]c3ccccc23)NC(=O)[C@H](Cc2ccc(O)cc2)NC(=O)[C@H](CCSCC(=O)NC[C@H](N)C(=O)N[C@@H](CCN)C(=O)N[C@@H](CS)C(=O)N[C@H](CO)[C@@H](C)O)N(C)C(=O)[C@H](Cc2ccccc2)NC1=O [cyclo-Tyr-D-Trp-Lys-Thr-Phe-(N—CH3)Hcy(CH2 CO-β-Dap-Dab-Cys-Thr(ol))],,,,0.642,> 1000
C[C@@H](O)[C@@H]1NC(=O)[C@H](CCCCN)NC(=O)[C@@H](Cc2c[nH]c3ccccc23)NC(=O)[C@H](Cc2ccc(O)cc2)NC(=O)[C@H](CCSCC(=O)NC[C@H](N)C(=O)N[C@@H](CN)C(=O)N[C@@H](CS)C(=O)N[C@H](CO)[C@@H](C)O)N(C)C(=O)[C@H](Cc2ccccc2)NC1=O [cyclo-Tyr-D-Trp-Les-Thr-Phe-(N—CH3)Hcy(CH2 CO-β-Dap-Dap-Cys-Thr(ol))],,,,0.449,46.8
C[C@@H](O)[C@@H]1NC(=O)[C@H](CCCCN)NC(=O)[C@@H](Cc2c[nH]c3ccccc23)NC(=O)[C@H](Cc2ccc(O)cc2)NC(=O)[C@H](CCSCC(=O)N[C@@H](CO)C(=O)N[C@@H](CO)C(=O)N[C@@H](CS)C(=O)NCCOCCOCCN)N(C)C(=O)[C@H](Cc2ccccc2)NC1=O [cyclo-Tyr-D-Trp-Lys-Thr-Phe-(N—CH3)Hcy(CH2 CO-Ser-Ser-Cys-NH(CH2 CH2 O)2 CH2 CH2 NH2)],10.6,44,132,0.645,> 1000
C[C@@H](O)[C@@H]1NC(=O)[C@H](CCCCN)NC(=O)[C@@H](Cc2c[nH]c3ccccc23)NC(=O)[C@H](Cc2ccc(O)cc2)NC(=O)[C@H](CCSCC(=O)NC[C@H](N)C(=O)N[C@@H](Cc2ccc(N)cc2)C(=O)N[C@@H](CS)C(=O)N[C@H](CO)[C@@H](C)O)N(C)C(=O)[C@H](Cc2ccccc2)NC1=O [cyclo-Tyr-D-Trp-Lys-Thr-Phe-(N—CH3)Hcy(CH2 CO-β-Dap-Phe(4-NH2)-Cys-Thr(ol))],31.8,81,188,0.501,< 0.001
C[C@@H](O)[C@@H]1NC(=O)[C@H](CCCCN)NC(=O)[C@@H](Cc2c[nH]c3ccccc23)NC(=O)[C@H](Cc2ccc(O)cc2)NC(=O)[C@H](CCSCC(=O)NC[C@H](N)C(=O)N[C@@H](CCCNC(=N)N)C(=O)N[C@@H](CS)C(=O)N[C@H](CO)[C@@H](C)O)N(C)C(=O)[C@H](Cc2ccccc2)NC1=O [cyclo-Tyr-D-Trp-Lys-Thr-Phe-(N—CH3)Hcy(CH2 CO-β-Dap-Arg-Cys-Thr(ol))],,,,0.413,< 0.001
C[C@@H](O)[C@H](NC(=O)[C@H](CS)NC(=O)[C@H](CCN)NC(=O)[C@@H](N)CNC(=O)CSCC[C@H]1C(=O)N[C@@H](Cc2ccc(O)cc2)C(=O)N[C@H](Cc2c[nH]c3ccccc23)C(=O)N[C@@H](CCCCN)C(=O)N[C@@H]([C@@H](C)O)C(=O)N[C@@H](Cc2ccccc2)C(=O)N1C)C(=O)O [cyclo-Tyr-D-Trp-Lys-Thr-Phe-(N—CH3)Hcy(CH2 CO-β-Dap-Dab-Cys-Thr)],,,,1.25,1.25
C[C@@H](O)[C@H](NC(=O)[C@H](CS)NC(=O)[C@H](Cc1ccc(N)cc1)NC(=O)[C@@H](N)CNC(=O)CSCC[C@H]1C(=O)N[C@@H](Cc2ccc(O)cc2)C(=O)N[C@H](Cc2c[nH]c3ccccc23)C(=O)N[C@@H](CCCCN)C(=O)N[C@@H]([C@@H](C)O)C(=O)N[C@@H](Cc2ccccc2)C(=O)N1C)C(=O)NC(CO)CO [cyclo-YWDKTF.(N—CH3)Hcy(CH2CO.β-Dap.F(4-NH2).CT.S(ol))],,,,0.388,0.388
C[C@@H](O)[C@H](NC(=O)[C@H](CS)NC(=O)[C@H](Cc1ccc(N)cc1)NC(=O)[C@@H](N)CNC(=O)CSCC[C@H]1C(=O)N[C@@H](Cc2ccc(O)cc2)C(=O)N[C@H](Cc2c[nH]c3ccccc23)C(=O)N[C@@H](CCCCN)C(=O)N[C@@H]([C@@H](C)O)C(=O)N[C@@H](Cc2ccccc2)C(=O)N1C)C(=O)O [cyclo-Tyr-D-Trp-Lys-Thr-Phe-(N—CH3)Hcy(CH2 CO-β-Dap-Phe(4-NH2)-Cys-Thr)],,,,0.641,0.641
"CC(O)[C@@H]1NC(=O)[C@H](CCCCN)NC(=O)[C@@H](Cc2c[nH]c3ccccc23)NC(=O)[C@H](Cc2ccc(O)cc2)NC(=O)[C@H](CCS)N(C)C(=O)[C@H](Cc2ccccc2)NC1=O (stereo partly drawn) [cyclo-YWDKTF.(N—CH3).Hcy., cyclo-Tyr-D-Trp-Lys-Thr-Phe-(N—CH3)Hcy] (cyclo(F[NMehCys]Y[dW]K[Thr(3ξ)]))",,,,0.21,
CC(C)[C@@H]1NC(=O)[C@H](CCCCN)NC(=O)[C@@H](Cc2c[nH]c3ccccc23)NC(=O)[C@H](Cc2ccc(O)cc2)NC(=O)[C@H](CCS)N(C)C(=O)[C@H](Cc2ccccc2)NC1=O [cyclo-YWDKVF.(N—CH3).Hcy.] (cyclo(Y[dW]KVF[NMehCys])),,,,0.21,
